The source made the active and inactive calls. No cut-off for these calls is given here.
Key:
NCI-H1299 [1] = experiment: Synergistic antiproliferative activity against human NCI-H1299 cells assessed as cell growth inhibition at 500 micromol/L incubated for 24 hrs in presence of AZD7545 by CCK-8 analysis; assay type: functional, cell-based; conditions: dose 500.0 µmol/L
NCI-H1299 [2] = experiment: Induction of apoptosis in human NCI-H1299 cells assessed as live cells at 500 micromol/L incubated for 24 hrs by Annexin V-FITC/PI staining based analysis (reference value: 96.6%); assay type: functional; conditions: dose 500 µmol/L, at 500 µM
NCI-H1299 [3] = experiment: Induction of apoptosis in human NCI-H1299 cells assessed as early apoptotic cells at 500 micromol/L incubated for 24 hrs by Annexin V-FITC/PI staining based analysis (reference value: 0.772%); assay type: functional; conditions: dose 500 µmol/L, at 500 µM
NCI-H1299 [4] = experiment: Induction of apoptosis in human NCI-H1299 cells assessed as late apoptotic cells at 500 micromol/L incubated for 24 hrs by Annexin V-FITC/PI staining based analysis (reference value: 2.63%); assay type: functional; conditions: dose 500 µmol/L, at 500 µM
NCI-H1299 [5] = experiment: Induction of apoptosis in human NCI-H1299 cells assessed as dead cells at 500 micromol/L incubated for 24 hrs by Annexin V-FITC/PI staining based analysis (reference value: 0.021%); assay type: functional; conditions: dose 500 µmol/L, at 500 µM
NCI-H1299 [6] = experiment: Induction of apoptosis in human NCI-H1299 cells assessed as live cells at 500 micromol/L incubated for 24 hrs in presence of AZD7545 by Annexin V-FITC/PI staining based analysis (reference value: 96.6%); assay type: functional; conditions: dose 500 µmol/L, at 500 µM
NCI-H1299 [7] = experiment: Induction of apoptosis in human NCI-H1299 cells assessed as early apoptotic cells at 500 micromol/L incubated for 24 hrs in presence of AZD7545 by Annexin V-FITC/PI staining based analysis (reference value: 0.772%); assay type: functional; conditions: dose 500 µmol/L, at 500 µM
NCI-H1299 [8] = experiment: Induction of apoptosis in human NCI-H1299 cells assessed as late apoptotic cells at 500 micromol/L incubated for 24 hrs in presence of AZD7545 by Annexin V-FITC/PI staining based analysis (reference value: 2.63%); assay type: functional; conditions: dose 500 µmol/L, at 500 µM
NCI-H1299 [9] = experiment: Induction of apoptosis in human NCI-H1299 cells assessed as dead cells at 500 micromol/L incubated for 24 hrs in presence of AZD7545 by Annexin V-FITC/PI staining based analysis (reference value: 0.021%); assay type: functional; conditions: dose 500 µmol/L, at 500 µM
NCI-H1299 [10] = experiment: Inhibition of glycolysis in human NCI-H1299 cells assessed as reduction in glucose consumption incubated for 24 hrs in presence of AZD7545 by colorimetric assay; assay type: functional, cell-based
NCI-H1299 [11] = experiment: Inhibition of glycolysis in human NCI-H1299 cells assessed as reduction in lactate production incubated for 1 hrs in presence of AZD7545 by colorimetric assay; assay type: functional, cell-based
NCI-H1299 [12] = experiment: Synergistic inhibition of NADPH production in human NCI-H1299 cells incubated for 2 hrs in presence of AZD7545 by NADP+/NADPH assay; assay type: functional, cell-based
NCI-H1299 [13] = experiment: Synergistic induction of oxidative phosphorylation in human NCI-H1299 cells assessed as increase in ATP production in presence of AZD7545 by luminescence based assay; assay type: functional, cell-based
NCI-H1299 [14] = experiment: Antitumor activity against human NCI-H1299 cells xenografted in mouse assessed as pathological damage to tumor tissue administered in presence of AZD7545; assay type: functional

`Cn1c2cc([S+](C)[O-])sc2c2cnn(Cc3cccc(N)c3)c(=O)c21` (centres undefined) was tested, and the Activity (NCI-H1299 [1]) was “Active”, the Activity (NCI-H1299 [2]) was 97% and the Activity (NCI-H1299 [3]) was 0.923%. The Activity (NCI-H1299 [4]) was 2.11%, the Activity (NCI-H1299 [5]) was 0% and the Activity (NCI-H1299 [6]) was 20.6%. It also gave an Activity (NCI-H1299 [7]) of 7.63%, an Activity (NCI-H1299 [8]) of 71.7% and an Activity (NCI-H1299 [9]) of 0%. For the same compound, the inhibition (NCI-H1299 [10]) was “Active”, the inhibition (NCI-H1299 [11]) was “Active” and the inhibition (NCI-H1299 [12]) was “Active”. For the same compound, the Activity (NCI-H1299 [13]) was “Active” and the Activity (NCI-H1299 [14]) was “Active”.

From ChEMBL document CHEMBL5346899, “PKM2/PDK1 dual-targeted shikonin derivatives restore the sensitivity of EGFR-mutated NSCLC cells to gefitinib by remodeling glucose metabolism” (Eur J Med Chem, 2023)
